Tested on: streptozotocin-induced diabetic rats
Assay: Effect of formulations on serum glucose level in diabetic rat model
Format: in vivo, male albino Wistar rats
Conditions: S.C., 1 u/kg

Insulin solution: Insulin solution, pH 3, given subcutaneously at 1 u/kg as reference
% Decrease in serum glucose level After 1 hr (1 hr): 76.62 ± 1.08%
% Decrease in serum glucose level After 2 hr (2 hr): 83.26 ± 2.56%
% Decrease in serum glucose level After 3 hr (3 hr): 66.75 ± 5.39%
% Decrease in serum glucose level After 5 hr (5 hr): 38.26 ± 3.60%

From US20080241260A1, “Compositions for Enhanced Absorption of Biologically Active Agents” (priority 2005, published 2008)
